Source: the CheMixHub ionic liquid set

Experiment: xn = mol fraction of the nth substance listed

CCCCCCCCCCCC[N+](C)(C)Cc1ccccc1.[Cl-] + CC(C)C[C@H](NC(=O)CN)C(=O)O + O
electrical conductivity [S/m], 101 kPa
Conditions	293.15 K	298.15 K	303.15 K	308.15 K	313.15 K
x2 = 0.0008999, x1 = 0.0002654	0.0792	0.0889	0.0993	0.11	0.123
x2 = 0.0008999, x1 = 0.0002843	0.0824	0.0926	0.104	0.116	0.129
x2 = 0.0008999, x1 = 0.0003023	0.0854	0.096	0.107	0.12	0.134
x2 = 0.0008999, x1 = 0.0003252	0.0892	0.101	0.113	0.126	0.14
x2 = 0.0009, x1 = 0.0001699	0.0609	0.068	0.0754	0.0833	0.0918
x2 = 0.0009, x1 = 0.000197	0.0669	0.0747	0.083	0.0919	0.102
x2 = 0.0009, x1 = 0.000222	0.0716	0.0801	0.0893	0.0991	0.11
x2 = 0.0009, x1 = 0.0002447	0.0757	0.0848	0.0946	0.105	0.117
x2 = 0.0009001, x1 = 5.034e-05	0.0218	0.0243	0.0272	0.0302	0.0333
x2 = 0.0009001, x1 = 7.251e-05	0.03	0.0335	0.0373	0.0412	0.0454
x2 = 0.0009001, x1 = 9.522e-05	0.038	0.0425	0.0473	0.0521	0.0573
x2 = 0.0009001, x1 = 0.0001178	0.0458	0.0511	0.0567	0.0625	0.0687
x2 = 0.0009001, x1 = 0.0001434	0.0539	0.0601	0.0666	0.0734	0.0808
x2 = 0.001793, x1 = 4.141e-05	0.0191	0.0215	0.0243	0.0271	0.0301
x2 = 0.001793, x1 = 6.45e-05	0.0271	0.0306	0.0342	0.038	0.0421
x2 = 0.001793, x1 = 8.905e-05	0.0354	0.0397	0.0444	0.0491	0.0542
x2 = 0.001793, x1 = 0.0001112	0.0424	0.0477	0.0531	0.0587	0.0648
x2 = 0.001793, x1 = 0.0001367	0.05	0.056	0.0624	0.069	0.0761
x2 = 0.001793, x1 = 0.0001631	0.0569	0.0637	0.0707	0.0787	0.0879
x2 = 0.001793, x1 = 0.0001904	0.0632	0.0708	0.0791	0.0877	0.0969
x2 = 0.001793, x1 = 0.0002156	0.0683	0.0767	0.0859	0.0955	0.106
x2 = 0.001793, x1 = 0.0002389	0.0727	0.0819	0.0918	0.102	0.114
x2 = 0.001793, x1 = 0.00026	0.0766	0.0863	0.0969	0.108	0.121
x2 = 0.001793, x1 = 0.0002803	0.0802	0.0905	0.102	0.114	0.127
x2 = 0.001793, x1 = 0.0003015	0.0838	0.0947	0.107	0.12	0.133
x2 = 0.001793, x1 = 0.0003211	0.0872	0.0986	0.112	0.125	0.139

CCCC[N+](CCCC)(CCCC)CCCC.[Cl-] + CC(C)[C@H](N)C(=O)O
100 kPa
Conditions	electrical conductivity, 313.15 K [S/m]	electrical conductivity, 323.15 K [S/m]	electrical conductivity, 333.15 K [S/m]	electrical conductivity, 343.15 K [S/m]	electrical conductivity, 353.15 K [S/m]	viscosity, 313.15 K [mPa·s]	viscosity, 323.15 K [mPa·s]	viscosity, 333.15 K [mPa·s]	viscosity, 343.15 K [mPa·s]	viscosity, 353.15 K [mPa·s]
x1 = 0.9	0.041	0.059	0.082	0.0989	0.123	800	460	258	145	82
x1 = 0.9091	0.029	0.041	0.055	0.0751	0.095	900	510	256	146	82
x1 = 0.9167	0.038	0.05	0.07	0.0901	0.116	587	313	196	105	63

CCCCCCCCCCCC[N+](C)(C)Cc1ccccc1.[Cl-] + CC(C)[C@H](N)C(=O)O + O
electrical conductivity [S/m], 101 kPa
Conditions	293.15 K	298.15 K	303.15 K	308.15 K	313.15 K
x2 = 0.0008891, x1 = 0.0003	0.0839	0.0943	0.106	0.118	0.132
x2 = 0.0008891, x1 = 0.000319	0.087	0.0977	0.11	0.123	0.137
x2 = 0.0008892, x1 = 0.0001722	0.0627	0.0699	0.0776	0.0856	0.0943
x2 = 0.0008892, x1 = 0.0001982	0.0677	0.0756	0.0841	0.0932	0.103
x2 = 0.0008892, x1 = 0.000222	0.0717	0.0802	0.0894	0.0993	0.11
x2 = 0.0008892, x1 = 0.0002429	0.0751	0.0841	0.0939	0.104	0.116
x2 = 0.0008892, x1 = 0.0002636	0.0783	0.0878	0.0982	0.109	0.122
x2 = 0.0008892, x1 = 0.0002822	0.0812	0.0912	0.102	0.114	0.127
x2 = 0.0008893, x1 = 7.858e-05	0.0307	0.0345	0.0383	0.0422	0.046
x2 = 0.0008893, x1 = 9.958e-05	0.0385	0.0432	0.0479	0.0528	0.0577
x2 = 0.0008893, x1 = 0.0001218	0.0467	0.0524	0.058	0.064	0.0701
x2 = 0.0008893, x1 = 0.0001461	0.0553	0.0619	0.0686	0.0756	0.0827
x2 = 0.0008894, x1 = 5.704e-05	0.0227	0.0255	0.0283	0.0312	0.034
x2 = 0.001757, x1 = 5.785e-05	0.0228	0.0256	0.0285	0.0315	0.0345
x2 = 0.001757, x1 = 7.859e-05	0.0304	0.0341	0.0379	0.0418	0.0458
x2 = 0.001757, x1 = 0.0001001	0.0382	0.0428	0.0475	0.0528	0.0574
x2 = 0.001757, x1 = 0.000121	0.0457	0.0512	0.0568	0.0628	0.0689
x2 = 0.001757, x1 = 0.0001443	0.0537	0.0601	0.0666	0.0735	0.0809
x2 = 0.001757, x1 = 0.0001688	0.0607	0.0676	0.075	0.0828	0.0914
x2 = 0.001757, x1 = 0.0001945	0.0657	0.0733	0.0815	0.0905	0.1
x2 = 0.001757, x1 = 0.0002205	0.07	0.0783	0.0872	0.0971	0.108
x2 = 0.001757, x1 = 0.0002437	0.0737	0.0826	0.0919	0.103	0.114
x2 = 0.001757, x1 = 0.0002647	0.0773	0.0864	0.0965	0.108	0.12
x2 = 0.001757, x1 = 0.0002841	0.0803	0.09	0.101	0.112	0.126
x2 = 0.001757, x1 = 0.0003021	0.0834	0.0937	0.105	0.117	0.13
x2 = 0.001757, x1 = 0.0003234	0.0872	0.0978	0.11	0.122	0.136

CCCCCCCCCCCC[N+](C)(C)Cc1ccccc1.[Cl-] + CC(C)[C@H](NC(=O)CN)C(=O)O + O
electrical conductivity [S/m], 101 kPa
Conditions	293.15 K	298.15 K	303.15 K	308.15 K	313.15 K
x2 = 0.0008945, x1 = 0.0002772	0.0811	0.0911	0.102	0.114	0.127
x2 = 0.0008945, x1 = 0.0002957	0.0841	0.0945	0.106	0.118	0.132
x2 = 0.0008945, x1 = 0.0003197	0.0879	0.099	0.112	0.124	0.138
x2 = 0.0008946, x1 = 0.0001647	0.0603	0.0672	0.0747	0.0825	0.0908
x2 = 0.0008946, x1 = 0.0001903	0.066	0.0736	0.0819	0.0907	0.1
x2 = 0.0008946, x1 = 0.0002151	0.0707	0.0791	0.0882	0.0978	0.108
x2 = 0.0008946, x1 = 0.0002373	0.0746	0.0834	0.0932	0.103	0.115
x2 = 0.0008946, x1 = 0.0002578	0.0779	0.0874	0.0977	0.109	0.121
x2 = 0.0008947, x1 = 7.118e-05	0.0298	0.0334	0.0372	0.041	0.0451
x2 = 0.0008947, x1 = 9.37e-05	0.0378	0.0423	0.0471	0.052	0.0571
x2 = 0.0008947, x1 = 0.0001168	0.0458	0.0513	0.0569	0.0627	0.0689
x2 = 0.0008947, x1 = 0.00014	0.0533	0.0596	0.0662	0.0729	0.0801
x2 = 0.0008948, x1 = 4.976e-05	0.022	0.0246	0.0275	0.0304	0.0335
x2 = 0.001798, x1 = 0.0001623	0.0582	0.0649	0.0722	0.0797	0.0879
x2 = 0.001798, x1 = 0.0001897	0.0643	0.0719	0.08	0.0885	0.098
x2 = 0.001798, x1 = 0.0002152	0.0693	0.0776	0.0866	0.096	0.106
x2 = 0.001798, x1 = 0.0002386	0.0736	0.0825	0.0922	0.102	0.114
x2 = 0.001798, x1 = 0.0002594	0.0773	0.0868	0.097	0.108	0.12
x2 = 0.001798, x1 = 0.0002777	0.0804	0.0903	0.101	0.113	0.126
x2 = 0.001798, x1 = 0.0002962	0.0834	0.0939	0.105	0.118	0.131
x2 = 0.001798, x1 = 0.0003218	0.0878	0.099	0.112	0.124	0.139
x2 = 0.001799, x1 = 4.099e-05	0.0199	0.0223	0.0251	0.0278	0.0307
x2 = 0.001799, x1 = 6.551e-05	0.0284	0.0319	0.0356	0.0393	0.0433
x2 = 0.001799, x1 = 8.875e-05	0.0363	0.0406	0.0453	0.0499	0.0549
x2 = 0.001799, x1 = 0.0001114	0.0437	0.0488	0.0543	0.0598	0.066
x2 = 0.001799, x1 = 0.000136	0.0512	0.0571	0.0635	0.0695	0.0771

CS(C)=O + CC(N)C(=O)[O-].COCCCCn1cc[n+](C)c1
Conditions	viscosity [mPa·s]
308.15 K, 100 kPa, x2 = 0	1.65
